Measured values as given in ChEMBL document CHEMBL4420076, “Amylin and calcitonin receptor agonist” (2017).
Numbered stars: 1 amine (or outer) side, 2 acyl side, 3 side chain; on linkers, the order of the positions; unused ones are H or OH. Peptide text beside a SMILES is read from it. * marks the point of attachment. C20 diacid = O=C(O)CCCCCCCCCCCCCCCCCCC(=O)*; C18 diacid = O=C(O)CCCCCCCCCCCCCCCCC(=O)*; γGlu = O=C(O)[C@H](CCC(=O)[*:2])N[*:1]

Experiments:
[1] = Solubility in 100 mM bistrispropane buffer at pH 8.0 incubated for 18 hrs by UPLC analysis; format: physicochemical
[2] = Solubility in 100 mM glycylglycine buffer at pH 5.0 incubated for 18 hrs by UPLC analysis; format: physicochemical
Calcitonin receptor [3] = molecular target: T1, Calcitonin receptor (Homo sapiens, UniProt P30988); experiment: Agonist activity at human calcitonin receptor expressed in BHK570 cells assessed as increase in intracellular cAMP concentration incubated for 3 hrs in absence of albumin by CRE luciferase reporter gene assay; format: functional, cell-based
T1 sequence (P30988 whole entry): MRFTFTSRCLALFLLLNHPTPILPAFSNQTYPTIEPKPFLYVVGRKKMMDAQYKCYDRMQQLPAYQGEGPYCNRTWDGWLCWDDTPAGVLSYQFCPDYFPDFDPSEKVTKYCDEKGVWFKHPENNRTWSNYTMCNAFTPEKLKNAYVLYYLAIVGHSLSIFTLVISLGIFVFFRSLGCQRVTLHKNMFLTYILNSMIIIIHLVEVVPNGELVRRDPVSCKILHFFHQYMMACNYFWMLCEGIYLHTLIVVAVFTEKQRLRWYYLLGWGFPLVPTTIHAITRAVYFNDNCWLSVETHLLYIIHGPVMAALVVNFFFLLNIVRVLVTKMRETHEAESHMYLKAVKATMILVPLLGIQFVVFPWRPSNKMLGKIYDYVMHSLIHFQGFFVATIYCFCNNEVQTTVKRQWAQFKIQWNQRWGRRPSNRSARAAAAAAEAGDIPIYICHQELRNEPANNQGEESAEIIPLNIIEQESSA

[4] = Solubility in 100 mM bistrispropane buffer at pH 6.5 incubated for 18 hrs by UPLC analysis; format: physicochemical
[5] = Solubility in 100 mM bistrispropane buffer at pH 6.0 incubated for 18 hrs by UPLC analysis; format: physicochemical
[6] = molecular target: T2, Amylin receptor AMY3; CALCR/RAMP3 (Homo sapiens, UniProt O60896+P30988); experiment: Agonist activity at human amylin receptor expressed in BHK570 cells co-expressing RAMP3 assessed as increase in intracellular cAMP concentration incubated for 3 hrs in absence of albumin by CRE luciferase reporter gene assay; format: functional, cell-based
T2 sequence (P30988 whole entry): T1 sequence (P30988 whole entry)
T2 sequence (O60896 whole entry): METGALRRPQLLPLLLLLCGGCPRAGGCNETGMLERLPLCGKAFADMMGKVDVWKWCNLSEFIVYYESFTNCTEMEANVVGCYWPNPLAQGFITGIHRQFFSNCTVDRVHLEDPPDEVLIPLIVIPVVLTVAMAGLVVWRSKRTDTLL

[7] = Solubility in 100 mM bistrispropane buffer at pH 7.0 incubated for 18 hrs by UPLC analysis; format: physicochemical
[8] = Solubility in 100 mM bistrispropane buffer at pH 7.5 incubated for 18 hrs by UPLC analysis; format: physicochemical
[9] = Solubility in 100 mM glycylglycine buffer at pH 4.0 incubated for 18 hrs by UPLC analysis; format: physicochemical
[10] = molecular target: T2, Amylin receptor AMY3; CALCR/RAMP3; experiment: Agonist activity at human amylin receptor expressed in BHK570 cells co-expressing RAMP3 assessed as increase in intracellular cAMP concentration incubated for 3 hrs in presence of 10% FBS by CRE luciferase reporter gene assay; format: functional, cell-based
[11] = Solubility in 100 mM glycylglycine buffer at pH 3.0 incubated for 18 hrs by UPLC analysis; format: physicochemical
[12] = molecular target: T2, Amylin receptor AMY3; CALCR/RAMP3; experiment: Displacement of [125I]-labeled rat amylin from human amylin receptor expressed in BHK tkts13 whole cells co-expressing RAMP3 incubated for 60 mins by scintillation proximity assay; format: cell-based
Calcitonin receptor [13] = molecular target: T1, Calcitonin receptor; experiment: Agonist activity at human calcitonin receptor expressed in BHK570 cells assessed as increase in intracellular cAMP concentration incubated for 3 hrs in presence of 10% FBS by CRE luciferase reporter gene assay; format: functional, cell-based

Row | solubility at 18 h [1] [µM] | solubility at 18 h [2] [µM] | EC50 (Calcitonin receptor [3]) [nM] | solubility at 18 h [4] [µM] | solubility at 18 h [5] [µM] | EC50 [6] [nM] | solubility at 18 h [7] [µM] | solubility at 18 h [8] [µM] | solubility at 18 h [9] [µM] | EC50 [10] [nM] | solubility at 18 h [11] [µM] | IC50 [12] [nM] | EC50 (Calcitonin receptor [13]) [nM] | Structure (SMILES)
1 | ≥ 200 | ≥ 200 | 0.004 | ≥ 200 | ≥ 200 | 0.009 | ≥ 200 | ≥ 200 | ≥ 200 | 0.026 | ≥ 200 | 0.83 | – | CC(C)C[C@H](NC(=O)[C@H](C)NC(=O)[C@H](C)NC(=O)[C@@H](NC(=O)[C@H](CO)NC(=O)[C@H](CC(C)C)NC(=O)[C@H](CCC(=O)O)NC(=O)[C@H](CO)NC(=O)[C@H](C)NC(=O)CC[C@H](NC(=O)CCCCCCCCCCCCCCCCC(=O)O)C(=O)O)[C@@H](C)O)C(=O)NCC(=O)N[C@@H](CCCNC(=N)N)C(=O)N[C@@H](CC(C)C)C(=O)N[C@@H](CO)C(=O)N[C@@H](C)C(=O)N[C@@H](CCC(=O)O)C(=O)N[C@@H](CC(C)C)C(=O)N[C@@H](Cc1cnc[nH]1)C(=O)N[C@@H](CCC(=O)O)C(=O)N[C@@H](CC(C)C)C(=O)N[C@@H](C)C(=O)N[C@H](C(=O)N[C@@H](CC(C)C)C(=O)N1CCC[C@H]1C(=O)N[C@@H](CCCNC(=N)N)C(=O)N[C@H](C(=O)N[C@@H](CCC(=O)O)C(=O)N[C@H](C(=O)NCC(=O)N[C@@H](CO)C(=O)N[C@@H](CCC(=O)O)C(=O)N[C@@H](CO)C(=O)N1CCC[C@H]1C(N)=O)[C@@H](C)O)[C@@H](C)O)[C@@H](C)O ({C18 diacid-γGlu}-ASELSTAALGRLSAELHELATLPRTETGSESP-NH2)
2 | ≥ 200 | – | 0.008 | ≥ 200 | ≥ 200 | – | ≥ 200 | ≥ 200 | – | 0.038 | ≥ 200 | 1.17 | 0.011 | CC(C)C[C@H](NC(=O)[C@H](CCC(=O)O)NC(=O)[C@H](Cc1cnc[nH]1)NC(=O)[C@H](CC(C)C)NC(=O)[C@H](CCC(=O)O)NC(=O)[C@H](C)NC(=O)[C@H](CO)NC(=O)[C@H](CC(C)C)NC(=O)[C@H](CCCNC(=N)N)NC(=O)CNC(=O)[C@@H](NC(=O)[C@@H](NC(=O)[C@H](C)NC(=O)[C@@H](NC(=O)[C@H](CO)NC(=O)[C@@H](NC(=O)[C@H](CCC(=O)O)NC(=O)[C@H](CO)NC(=O)[C@H](C)NC(=O)CC[C@H](NC(=O)CCCCCCCCCCCCCCCCC(=O)O)C(=O)O)C(C)C)[C@@H](C)O)C(C)C)C(C)C)C(=O)N[C@@H](C)C(=O)N[C@H](C(=O)N[C@@H](CC(C)C)C(=O)N1CCC[C@H]1C(=O)N[C@@H](CCCNC(=N)N)C(=O)N[C@H](C(=O)N[C@@H](CCC(=O)O)C(=O)N[C@H](C(=O)NCC(=O)N[C@@H](CO)C(=O)NCC(=O)N[C@@H](CO)C(=O)N1CCC[C@H]1C(N)=O)[C@@H](C)O)[C@@H](C)O)[C@@H](C)O ({C18 diacid-γGlu}-ASEVSTAVVGRLSAELHELATLPRTETGSGSP-NH2)
3 | ≥ 200 | ≥ 200 | 0.025 | ≥ 200 | ≥ 200 | 0.041 | ≥ 200 | ≥ 200 | ≥ 200 | 0.085 | ≥ 200 | – | – | CC(C)C[C@H](NC(=O)[C@H](C)NC(=O)[C@H](C)NC(=O)[C@@H](NC(=O)[C@H](CO)NC(=O)[C@H](CC(C)C)NC(=O)[C@H](CCC(=O)O)NC(=O)[C@H](CO)NC(=O)[C@H](C)NC(=O)CC[C@H](NC(=O)CCCCCCCCCCCCCCCCCCC(=O)O)C(=O)O)[C@@H](C)O)C(=O)NCC(=O)N[C@@H](CCCNC(=N)N)C(=O)N[C@@H](CC(C)C)C(=O)N[C@@H](CO)C(=O)N[C@@H](CCC(=O)O)C(=O)N[C@@H](CCC(=O)O)C(=O)N[C@@H](CC(C)C)C(=O)N[C@@H](Cc1cnc[nH]1)C(=O)N[C@@H](CCC(=O)O)C(=O)N[C@@H](CC(C)C)C(=O)N[C@@H](C)C(=O)N[C@H](C(=O)N[C@@H](CC(C)C)C(=O)N1CCC[C@H]1C(=O)N[C@@H](CCCNC(=N)N)C(=O)N[C@H](C(=O)N[C@@H](CCC(=O)O)C(=O)N[C@H](C(=O)NCC(=O)N[C@@H](CO)C(=O)NCC(=O)N[C@@H](CO)C(=O)N1CCC[C@H]1C(N)=O)[C@@H](C)O)[C@@H](C)O)[C@@H](C)O ({C20 diacid-γGlu}-ASELSTAALGRLSEELHELATLPRTETGSGSP-NH2)

The next lines start with the compound.

Row | Structure (SMILES) | solubility at 18 h [1] [µM] | solubility at 18 h [2] [µM] | EC50 (Calcitonin receptor [3]) [nM] | solubility at 18 h [4] [µM] | solubility at 18 h [5] [µM] | EC50 [6] [nM] | solubility at 18 h [7] [µM] | solubility at 18 h [8] [µM] | solubility at 18 h [9] [µM] | EC50 [10] [nM] | solubility at 18 h [11] [µM] | IC50 [12] [nM] | EC50 (Calcitonin receptor [13]) [nM]
4 | CC(C)C[C@H](NC(=O)[C@H](C)NC(=O)[C@H](C)NC(=O)[C@@H](NC(=O)[C@H](CO)NC(=O)[C@H](CC(C)C)NC(=O)[C@H](CCC(=O)O)NC(=O)[C@H](CO)NC(=O)[C@H](C)NC(=O)CC[C@H](NC(=O)CCCCCCCCCCCCCCCCC(=O)O)C(=O)O)[C@@H](C)O)C(=O)NCC(=O)N[C@@H](CCCNC(=N)N)C(=O)N[C@@H](CC(C)C)C(=O)N[C@@H](CO)C(=O)N[C@@H](C)C(=O)N[C@@H](CCC(=O)O)C(=O)N[C@@H](CC(C)C)C(=O)N[C@@H](Cc1cnc[nH]1)C(=O)N[C@@H](CCC(=O)O)C(=O)N[C@@H](CC(C)C)C(=O)N[C@@H](C)C(=O)N[C@H](C(=O)N[C@@H](CC(C)C)C(=O)N1CCC[C@H]1C(=O)N[C@@H](CCCNC(=N)N)C(=O)N[C@H](C(=O)N[C@@H](CCC(=O)O)C(=O)N[C@H](C(=O)NCC(=O)N[C@@H](CO)C(=O)NCC(=O)N1CCC[C@H]1C(=O)N1CCC[C@H]1C(N)=O)[C@@H](C)O)[C@@H](C)O)[C@@H](C)O ({C18 diacid-γGlu}-ASELSTAALGRLSAELHELATLPRTETGSGPP-NH2) | ≥ 200 | ≥ 200 | 0.019 | ≥ 200 | ≥ 200 | 0.08 | ≥ 200 | ≥ 200 | ≥ 200 | 0.413 | ≥ 200 | 22 | –
5 | CC(C)C[C@H](NC(=O)[C@H](C)NC(=O)[C@H](C)NC(=O)[C@@H](NC(=O)[C@H](CO)NC(=O)[C@H](CC(C)C)NC(=O)[C@H](CCC(=O)O)NC(=O)[C@H](CO)NC(=O)[C@H](C)NC(=O)CC[C@H](NC(=O)CCCCCCCCCCCCCCCCC(=O)O)C(=O)O)[C@@H](C)O)C(=O)NCC(=O)N[C@@H](CCCNC(=N)N)C(=O)N[C@@H](CC(C)C)C(=O)N[C@@H](CO)C(=O)N[C@@H](C)C(=O)N[C@@H](CCC(=O)O)C(=O)N[C@@H](CC(C)C)C(=O)N[C@@H](Cc1cnc[nH]1)C(=O)N[C@@H](CCC(=O)O)C(=O)N[C@@H](CC(C)C)C(=O)N[C@@H](C)C(=O)N[C@H](C(=O)N[C@@H](CC(C)C)C(=O)N1CCC[C@H]1C(=O)N[C@@H](CCCNC(=N)N)C(=O)N[C@H](C(=O)N[C@@H](CCC(=O)O)C(=O)N[C@H](C(=O)NCC(=O)N[C@@H](CO)C(=O)N1CCC[C@H]1C(=O)N[C@@H](CO)C(=O)N1CCC[C@H]1C(N)=O)[C@@H](C)O)[C@@H](C)O)[C@@H](C)O ({C18 diacid-γGlu}-ASELSTAALGRLSAELHELATLPRTETGSPSP-NH2) | ≥ 200 | ≥ 200 | 0.008 | ≥ 200 | ≥ 200 | 0.013 | ≥ 200 | ≥ 200 | ≥ 200 | 0.039 | ≥ 200 | – | 0.019
6 | CC(C)C[C@H](NC(=O)[C@H](C)NC(=O)[C@H](C)NC(=O)[C@@H](NC(=O)[C@H](CO)NC(=O)[C@H](CC(C)C)NC(=O)[C@H](CCC(=O)O)NC(=O)[C@H](CO)NC(=O)[C@H](C)NC(=O)CC[C@H](NC(=O)CCCCCCCCCCCCCCCCCCC(=O)O)C(=O)O)[C@@H](C)O)C(=O)NCC(=O)N[C@@H](CCCNC(=N)N)C(=O)N[C@@H](CC(C)C)C(=O)N[C@@H](CO)C(=O)N[C@@H](C)C(=O)N[C@@H](CCC(=O)O)C(=O)N[C@@H](CC(C)C)C(=O)N[C@@H](Cc1cnc[nH]1)C(=O)N[C@@H](CCC(=O)O)C(=O)N[C@@H](CC(C)C)C(=O)N[C@@H](CO)C(=O)N[C@H](C(=O)N[C@@H](Cc1ccc(O)cc1)C(=O)N1CCC[C@H]1C(=O)N[C@@H](CCCNC(=N)N)C(=O)N[C@H](C(=O)N[C@@H](CCC(=O)O)C(=O)N[C@H](C(=O)NCC(=O)N[C@@H](CO)C(=O)NCC(=O)N[C@@H](CO)C(=O)N[C@@H](Cc1ccc(O)cc1)C(N)=O)[C@@H](C)O)[C@@H](C)O)[C@@H](C)O ({C20 diacid-γGlu}-ASELSTAALGRLSAELHELSTYPRTETGSGSY-NH2) | ≥ 200 | – | 0.034 | ≥ 200 | ≥ 200 | 0.05 | ≥ 200 | ≥ 200 | ≥ 200 | 0.064 | ≥ 200 | 0.186 | –
